Test results from ChEMBL document CHEMBL1201862, “PubChem BioAssay data set” (2004).
The source made the active and inactive calls.

Legend:
Streptococcus = assay: Group A Streptococcus viability loss, dose response, counter-screen for streptokinase expression inhibitor project, luminescence, BacTiterGlo (AID 1915); type: functional, organism-based;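 further: potency for reduction of bacterial viability or growth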
Streptokinase A = target: T1, Streptokinase A (Streptococcus pyogenes serotype M1, UniProt P10520); assay: S. pyogenes streptokinase expression inhibitors, potency, dose response, plasminogen activation absorbance, OD405 (AID 1914); type: functional, Streptococcus pyogenes M1 GAS;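 further: secreted streptokinase activity via plasminogen activation per viability signal from cell pellet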
T1 sequence (P10520 whole entry): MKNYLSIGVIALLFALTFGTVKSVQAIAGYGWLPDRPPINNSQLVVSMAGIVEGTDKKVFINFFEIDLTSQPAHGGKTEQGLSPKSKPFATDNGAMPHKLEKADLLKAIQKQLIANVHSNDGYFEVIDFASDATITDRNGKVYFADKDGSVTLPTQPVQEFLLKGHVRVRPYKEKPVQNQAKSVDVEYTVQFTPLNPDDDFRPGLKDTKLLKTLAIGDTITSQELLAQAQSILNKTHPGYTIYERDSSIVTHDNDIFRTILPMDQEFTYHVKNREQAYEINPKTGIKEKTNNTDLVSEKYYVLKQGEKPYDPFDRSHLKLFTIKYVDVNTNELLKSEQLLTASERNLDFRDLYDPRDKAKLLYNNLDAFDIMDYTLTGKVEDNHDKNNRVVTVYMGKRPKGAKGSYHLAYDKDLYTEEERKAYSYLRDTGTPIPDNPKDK

[1] = target: ATP-binding cassette sub-family B member 6 (Homo sapiens, UniProt Q9NP58); assay: ABCB6 transporter inhibitors, dose response, K562-ABCB6 cells, flow cytometry, cherry pick 1 (AID 623955); type: functional; details: read-out: EC50_MICROM
[2] = Shn3 3'UTR reporter inhibitors, dose response, cell-based, Clone20 osteoblasts, firefly luciferase, cherry-picked (AID 624132); type: functional;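 further: firefly luciferase luminescence from reporter carrying the Shn3 3'UTR in osteoblasts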
Protein RecA = target: T2, Protein RecA (Mycobacterium tuberculosis, UniProt P9WHJ3); assay: Fluorescence Cell-Free Homogeneous Dose Retest to Identify Inhibitors of RecA-Intein Splicing Activity. [Related pubchem assays (depositor defined):AID2097, AID2223, AID489010, AID492950]; type: functional
T2 sequence (P9WHJ3 whole entry): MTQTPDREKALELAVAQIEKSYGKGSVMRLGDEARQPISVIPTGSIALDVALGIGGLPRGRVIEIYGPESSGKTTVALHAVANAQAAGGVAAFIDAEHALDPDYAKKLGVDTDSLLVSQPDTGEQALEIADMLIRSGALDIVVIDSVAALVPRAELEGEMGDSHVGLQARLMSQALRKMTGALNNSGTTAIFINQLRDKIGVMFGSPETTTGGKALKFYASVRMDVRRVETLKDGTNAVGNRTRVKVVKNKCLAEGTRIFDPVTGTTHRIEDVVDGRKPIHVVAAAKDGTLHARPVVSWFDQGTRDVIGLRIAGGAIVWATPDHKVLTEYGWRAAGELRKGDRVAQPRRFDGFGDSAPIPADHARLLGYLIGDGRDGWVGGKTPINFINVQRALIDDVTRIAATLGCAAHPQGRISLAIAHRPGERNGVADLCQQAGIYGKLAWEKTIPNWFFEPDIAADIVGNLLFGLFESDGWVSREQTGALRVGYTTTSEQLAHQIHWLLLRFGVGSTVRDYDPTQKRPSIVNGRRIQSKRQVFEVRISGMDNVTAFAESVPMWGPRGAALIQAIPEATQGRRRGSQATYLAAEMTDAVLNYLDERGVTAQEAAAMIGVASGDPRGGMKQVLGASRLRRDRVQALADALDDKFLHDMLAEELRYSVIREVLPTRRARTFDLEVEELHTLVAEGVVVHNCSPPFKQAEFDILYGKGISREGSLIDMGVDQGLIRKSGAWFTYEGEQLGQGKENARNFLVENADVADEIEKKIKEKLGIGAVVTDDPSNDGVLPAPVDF

CHO = assay: cytotoxicity in TLR9-MyD88 CHO cells, dose response, cytotoxicity control for TLR9-MyD88 binding inhibitor project, cell-based, luminescence (AID 588339); type: functional, hamster; details: Cricetulus griseus;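 further: CHO cells stably coexpressing TLR9 and MyD88 fusions from primary screen; compound exposure lasted 48 hours before viability readout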
INS1 = assay: beta cell apoptosis inhibitors, cytokine rescue, dose response, luminescence, retest (AID 449756); type: functional, cell-based; details: Rattus norvegicus;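 further: cell death triggered by IL-1 beta plus TNF-alpha plus IFN-gamma mixture; protective hits raise ATP signal compared with cytokine alone wells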
[3] = target: Heat shock protein HSP 90-alpha (Homo sapiens, UniProt P07900); type: functional, organism-based
[4] = target: T3, Replicative DNA helicase DnaB (Mycobacterium tuberculosis, UniProt P9WMR3); assay: DnaB intein splicing inhibitors, dose response, biochemical, cell-free fluorescence (AID 449749); type: functional
T3 sequence (P9WMR3 whole entry): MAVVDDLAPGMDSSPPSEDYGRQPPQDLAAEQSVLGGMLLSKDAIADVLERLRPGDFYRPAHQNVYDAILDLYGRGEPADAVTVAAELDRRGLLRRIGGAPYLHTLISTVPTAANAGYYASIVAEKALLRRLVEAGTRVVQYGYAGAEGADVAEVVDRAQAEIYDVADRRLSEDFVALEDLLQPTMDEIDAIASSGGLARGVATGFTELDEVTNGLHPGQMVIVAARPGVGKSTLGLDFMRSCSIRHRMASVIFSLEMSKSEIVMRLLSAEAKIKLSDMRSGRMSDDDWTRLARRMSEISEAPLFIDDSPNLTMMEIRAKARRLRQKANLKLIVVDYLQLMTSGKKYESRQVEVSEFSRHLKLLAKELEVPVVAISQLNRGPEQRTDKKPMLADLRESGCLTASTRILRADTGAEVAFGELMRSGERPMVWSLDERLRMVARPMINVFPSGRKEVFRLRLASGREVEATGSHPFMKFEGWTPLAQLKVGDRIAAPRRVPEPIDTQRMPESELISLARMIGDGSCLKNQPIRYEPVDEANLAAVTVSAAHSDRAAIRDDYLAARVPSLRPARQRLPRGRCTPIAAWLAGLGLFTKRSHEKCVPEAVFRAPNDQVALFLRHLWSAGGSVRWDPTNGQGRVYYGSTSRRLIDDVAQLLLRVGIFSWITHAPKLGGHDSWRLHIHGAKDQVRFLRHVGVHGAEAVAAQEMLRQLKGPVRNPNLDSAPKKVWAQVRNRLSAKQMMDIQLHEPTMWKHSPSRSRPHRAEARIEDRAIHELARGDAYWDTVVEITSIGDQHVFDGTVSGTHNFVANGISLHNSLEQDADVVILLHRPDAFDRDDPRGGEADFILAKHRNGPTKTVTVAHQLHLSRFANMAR

[5] = test system: Streptococcus sp. 'group A'; assay: growth inhibition of control SK(-) GAS strain, dose response, counter-screen for streptokinase expression inhibitor project, luminescence, kanamycin, BacTiterGlo, confirmation (AID 1900); type: functional, organism-based
[6] = control 3'UTR Renilla luciferase suppression, dose response, counter-screen for Shn3 inhibitor project, cell-based, Clone20-Shn3RL, cherry-picked (AID 624133); type: functional
Beta Lactamase = Beta Lactamase (Pseudomonas aeruginosa, UniProt Q932Y6); assay: beta-lactamase reporter inhibitor potency, dose response, artefact control for TLR9-MyD88 binding inhibitor project, BLA reporter cells, FRET fluorescence (AID 588341); type: cell-based;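 further: cell based assay in CHO-K1 cells stably expressing beta-lactamase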
[7] = HepG2 cell cytotoxicity, dose response, cytotoxicity control for Shn3 inhibitor project, CellTiter-Glo, cherry-picked (AID 624134); type: functional, cell-based
[8] = target: Adenosylmethionine-8-amino-7-oxononanoate aminotransferase (Mycobacterium tuberculosis, UniProt P9WQ81); assay: Mycobacterium tuberculosis BioA enzyme inhibitor Measured in Biochemical System Using Plate Reader - 2163-02_Inhibitor_Dose_CherryPick_Activity.; type: functional, Mycobacterium tuberculosis UT205
[9] = target: T4, Apoptotic protease-activating factor 1 (Homo sapiens, UniProt O14727); assay: SAR analysis of small molecule Activators of Apaf-1 in a Fluorescent assay.; type: functional; details: read-out: EC50_Mean;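 further: caspase-3 cleavage of fluorogenic Rh110 DEVD substrate downstream of apoptosome activation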
T4 sequence (O14727 whole entry): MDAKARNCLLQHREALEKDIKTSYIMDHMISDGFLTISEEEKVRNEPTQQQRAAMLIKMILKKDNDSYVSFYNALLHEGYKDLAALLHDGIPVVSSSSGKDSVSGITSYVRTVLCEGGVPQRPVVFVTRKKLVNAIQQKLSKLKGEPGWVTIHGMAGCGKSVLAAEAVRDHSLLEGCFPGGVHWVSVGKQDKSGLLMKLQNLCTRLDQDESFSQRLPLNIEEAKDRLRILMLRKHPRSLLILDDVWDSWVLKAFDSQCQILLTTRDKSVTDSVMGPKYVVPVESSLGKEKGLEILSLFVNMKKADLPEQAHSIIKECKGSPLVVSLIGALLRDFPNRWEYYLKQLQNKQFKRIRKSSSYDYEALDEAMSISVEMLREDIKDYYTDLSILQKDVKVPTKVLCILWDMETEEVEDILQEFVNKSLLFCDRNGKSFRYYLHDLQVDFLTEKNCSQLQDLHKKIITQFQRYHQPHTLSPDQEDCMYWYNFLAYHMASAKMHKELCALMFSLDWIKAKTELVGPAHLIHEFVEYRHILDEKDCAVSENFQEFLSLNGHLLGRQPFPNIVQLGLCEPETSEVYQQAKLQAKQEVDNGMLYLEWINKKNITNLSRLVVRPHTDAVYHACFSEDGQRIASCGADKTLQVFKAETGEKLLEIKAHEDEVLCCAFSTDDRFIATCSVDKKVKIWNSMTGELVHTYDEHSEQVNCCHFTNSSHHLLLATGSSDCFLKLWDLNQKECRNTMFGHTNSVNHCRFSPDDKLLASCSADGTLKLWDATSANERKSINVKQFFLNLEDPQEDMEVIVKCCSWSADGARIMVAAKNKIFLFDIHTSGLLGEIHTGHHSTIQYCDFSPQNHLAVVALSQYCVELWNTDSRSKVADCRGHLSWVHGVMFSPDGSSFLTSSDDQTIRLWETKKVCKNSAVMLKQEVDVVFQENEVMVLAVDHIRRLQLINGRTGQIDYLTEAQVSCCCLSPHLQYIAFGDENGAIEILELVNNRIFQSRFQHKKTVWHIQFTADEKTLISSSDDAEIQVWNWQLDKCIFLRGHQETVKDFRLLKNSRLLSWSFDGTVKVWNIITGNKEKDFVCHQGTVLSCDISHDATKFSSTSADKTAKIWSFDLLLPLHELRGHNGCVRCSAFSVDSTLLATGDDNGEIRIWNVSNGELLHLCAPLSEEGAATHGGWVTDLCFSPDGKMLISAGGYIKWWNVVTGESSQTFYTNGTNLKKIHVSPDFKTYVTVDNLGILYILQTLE

Interleukin-8 [10] = target: T5, Interleukin-8 (Homo sapiens, UniProt P10145); assay: Dose Response confirmation of uHTS small molecule hits for cystic fibrosis induced NFkb Inhibitors in a PAF-induced IL8 counterscreen.; type: functional; details: read-out: IC50_Mean
T5 sequence (P10145 whole entry): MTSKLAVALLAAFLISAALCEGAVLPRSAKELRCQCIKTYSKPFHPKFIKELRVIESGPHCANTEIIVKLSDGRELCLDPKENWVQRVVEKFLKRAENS

Interleukin-8 [11] = target: T5, Interleukin-8; assay: Dose Response confirmation of uHTS small molecule hits for cystic fibrosis induced NFkb Inhibitors in a TNFa-induced IL8 counterscreen.; type: functional; details: read-out: IC50_Mean
[12] = target: T6, Diacylglycerol lipase-beta (Mus musculus, UniProt Q91WC9); assay: Late stage assay provider results from the probe development effort to identify inhibitors of diacylglycerol lipase, beta (DAGLb): LCMS-based biochemical dose response assay.; type: functional
[13] = target: T6, Diacylglycerol lipase-beta; assay: Late stage assay provider results from the probe development effort to identify inhibitors of diacylglycerol lipase, beta (DAGLb): fluorescence-based dose-response biochemical gel-based competitive Activity-Based Protein Profiling (ABPP) inhibition of DAGLb in vitro.; type: functional
[14] = ARNT/TACC3 interaction disruptors, potency, confirmation, biochemical, AlphaScreen, cherry-picked samples (AID 651703); type: functional, Homo sapiens;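 further: His-tagged ARNT PAS-B domain paired with GST-TACC3 E629A dimer coactivator fragment; potency of inhibitors that break up the complex and lower AlphaScreen signal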
[15] = target: DNA (cytosine-5)-methyltransferase 1 (Homo sapiens, UniProt P26358); assay: DNMT1 methyltransferase inhibitors, confirmation, biochemical, fluorescent molecular beacon (AID 602386); type: functional
[16] = target: T7, Polyadenylate-binding protein 1 (Homo sapiens, UniProt P11940); assay: PABP1 MLLE–PAM2 interaction inhibitors, dose response, miRNA deadenylation inhibitor project, biochemical, fluorescence polarization, Cy5-PAM2 peptide, secondary (AID 602260); type: functional; details: read-out: IC50_Mean
[17] = target: T7, Polyadenylate-binding protein 1; assay: PABP1 MLLE–PAM2 binding inhibitor potency, dose response, biochemical, fluorescence polarization, FITC-PAM2 peptide (AID 602259); type: functional; details: read-out: IC50_Mean

T6 sequence (Q91WC9 whole entry): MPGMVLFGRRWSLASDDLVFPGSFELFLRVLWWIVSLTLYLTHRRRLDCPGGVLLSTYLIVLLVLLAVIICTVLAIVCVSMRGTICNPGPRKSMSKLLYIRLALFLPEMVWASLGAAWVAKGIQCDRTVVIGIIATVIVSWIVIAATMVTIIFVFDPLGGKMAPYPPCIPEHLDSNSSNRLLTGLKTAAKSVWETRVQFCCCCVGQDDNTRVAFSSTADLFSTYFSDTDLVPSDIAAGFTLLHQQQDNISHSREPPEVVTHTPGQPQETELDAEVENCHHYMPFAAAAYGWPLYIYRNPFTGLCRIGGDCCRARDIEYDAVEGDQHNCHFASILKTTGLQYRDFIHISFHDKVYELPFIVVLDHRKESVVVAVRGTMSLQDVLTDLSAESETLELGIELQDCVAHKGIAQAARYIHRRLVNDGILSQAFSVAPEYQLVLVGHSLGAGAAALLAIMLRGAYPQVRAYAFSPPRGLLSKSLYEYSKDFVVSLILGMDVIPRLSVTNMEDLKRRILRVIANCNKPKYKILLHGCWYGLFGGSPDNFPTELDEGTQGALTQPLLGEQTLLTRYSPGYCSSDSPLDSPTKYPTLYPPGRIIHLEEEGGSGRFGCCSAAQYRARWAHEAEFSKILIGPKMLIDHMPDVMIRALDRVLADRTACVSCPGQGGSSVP
T7 sequence (P11940 whole entry): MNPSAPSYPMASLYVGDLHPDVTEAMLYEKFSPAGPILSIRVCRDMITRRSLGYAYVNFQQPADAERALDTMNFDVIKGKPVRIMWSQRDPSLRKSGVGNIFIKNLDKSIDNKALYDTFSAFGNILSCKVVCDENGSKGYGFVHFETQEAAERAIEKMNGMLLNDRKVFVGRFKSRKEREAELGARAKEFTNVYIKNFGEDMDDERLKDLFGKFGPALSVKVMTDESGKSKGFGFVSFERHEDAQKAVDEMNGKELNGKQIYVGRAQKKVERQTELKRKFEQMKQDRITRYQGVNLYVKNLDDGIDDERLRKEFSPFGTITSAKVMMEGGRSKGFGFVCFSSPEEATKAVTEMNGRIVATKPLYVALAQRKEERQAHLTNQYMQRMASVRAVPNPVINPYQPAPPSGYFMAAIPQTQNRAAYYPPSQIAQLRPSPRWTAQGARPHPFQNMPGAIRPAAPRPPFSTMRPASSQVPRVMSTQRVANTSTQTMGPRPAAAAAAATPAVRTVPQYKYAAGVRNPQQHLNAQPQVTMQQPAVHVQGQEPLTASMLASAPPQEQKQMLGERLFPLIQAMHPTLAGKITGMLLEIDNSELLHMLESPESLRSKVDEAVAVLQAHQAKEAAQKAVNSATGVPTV
Chain of Adenosylmethionine-8-amino-7-oxononanoate aminotransferase (P9WQ81 whole entry): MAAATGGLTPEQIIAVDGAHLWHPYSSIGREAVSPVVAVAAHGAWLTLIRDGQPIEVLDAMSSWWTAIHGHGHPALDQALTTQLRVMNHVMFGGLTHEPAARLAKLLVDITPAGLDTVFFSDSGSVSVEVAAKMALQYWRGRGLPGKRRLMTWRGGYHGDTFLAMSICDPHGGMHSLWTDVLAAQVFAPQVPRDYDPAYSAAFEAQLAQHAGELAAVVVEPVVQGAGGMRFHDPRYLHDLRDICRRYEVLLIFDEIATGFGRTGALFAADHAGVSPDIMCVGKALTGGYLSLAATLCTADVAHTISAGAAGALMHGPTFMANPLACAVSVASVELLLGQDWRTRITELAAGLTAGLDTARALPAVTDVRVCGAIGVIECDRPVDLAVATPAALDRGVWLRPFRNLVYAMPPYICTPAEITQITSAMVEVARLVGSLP
Chain of DNA (cytosine-5)-methyltransferase 1 (P26358 whole entry): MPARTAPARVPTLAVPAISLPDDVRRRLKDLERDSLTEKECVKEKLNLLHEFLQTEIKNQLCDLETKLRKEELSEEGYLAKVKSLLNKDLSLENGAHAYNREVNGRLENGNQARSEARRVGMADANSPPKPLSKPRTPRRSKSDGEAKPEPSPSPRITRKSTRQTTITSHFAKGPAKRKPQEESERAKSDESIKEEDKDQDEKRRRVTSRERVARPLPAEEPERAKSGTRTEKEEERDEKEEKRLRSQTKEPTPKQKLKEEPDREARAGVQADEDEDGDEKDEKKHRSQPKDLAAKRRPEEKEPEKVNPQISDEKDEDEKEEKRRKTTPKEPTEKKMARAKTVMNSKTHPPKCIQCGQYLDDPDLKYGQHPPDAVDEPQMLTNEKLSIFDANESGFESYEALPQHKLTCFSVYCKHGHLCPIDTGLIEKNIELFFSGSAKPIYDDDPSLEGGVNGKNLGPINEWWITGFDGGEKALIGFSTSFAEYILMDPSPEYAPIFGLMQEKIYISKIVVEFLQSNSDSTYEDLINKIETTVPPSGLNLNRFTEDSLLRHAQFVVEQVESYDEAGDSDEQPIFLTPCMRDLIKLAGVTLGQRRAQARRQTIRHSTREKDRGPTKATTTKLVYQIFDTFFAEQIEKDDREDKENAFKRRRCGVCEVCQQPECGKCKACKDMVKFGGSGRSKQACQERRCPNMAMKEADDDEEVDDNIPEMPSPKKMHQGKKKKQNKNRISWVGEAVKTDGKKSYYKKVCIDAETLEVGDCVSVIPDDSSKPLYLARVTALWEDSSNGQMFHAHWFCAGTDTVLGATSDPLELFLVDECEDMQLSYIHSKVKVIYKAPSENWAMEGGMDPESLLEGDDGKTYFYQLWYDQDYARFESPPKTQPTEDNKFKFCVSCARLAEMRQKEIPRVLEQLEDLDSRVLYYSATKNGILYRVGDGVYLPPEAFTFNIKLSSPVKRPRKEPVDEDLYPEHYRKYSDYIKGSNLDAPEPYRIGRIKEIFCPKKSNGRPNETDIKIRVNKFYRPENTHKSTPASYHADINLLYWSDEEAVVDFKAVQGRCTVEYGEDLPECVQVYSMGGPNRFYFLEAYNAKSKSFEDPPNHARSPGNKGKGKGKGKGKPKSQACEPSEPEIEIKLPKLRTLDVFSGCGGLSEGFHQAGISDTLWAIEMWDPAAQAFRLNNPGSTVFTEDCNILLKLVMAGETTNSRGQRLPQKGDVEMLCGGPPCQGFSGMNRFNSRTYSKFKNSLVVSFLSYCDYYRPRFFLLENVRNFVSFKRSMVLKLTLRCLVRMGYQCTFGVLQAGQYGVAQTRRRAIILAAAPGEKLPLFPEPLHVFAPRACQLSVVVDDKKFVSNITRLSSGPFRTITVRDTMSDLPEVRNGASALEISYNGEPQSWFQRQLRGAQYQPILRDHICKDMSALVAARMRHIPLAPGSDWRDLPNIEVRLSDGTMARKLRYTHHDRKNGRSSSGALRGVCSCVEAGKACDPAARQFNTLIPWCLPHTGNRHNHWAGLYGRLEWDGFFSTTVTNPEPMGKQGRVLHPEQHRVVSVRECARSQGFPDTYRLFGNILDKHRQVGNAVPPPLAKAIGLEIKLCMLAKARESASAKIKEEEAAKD
Chain of Beta Lactamase (Q932Y6 whole entry): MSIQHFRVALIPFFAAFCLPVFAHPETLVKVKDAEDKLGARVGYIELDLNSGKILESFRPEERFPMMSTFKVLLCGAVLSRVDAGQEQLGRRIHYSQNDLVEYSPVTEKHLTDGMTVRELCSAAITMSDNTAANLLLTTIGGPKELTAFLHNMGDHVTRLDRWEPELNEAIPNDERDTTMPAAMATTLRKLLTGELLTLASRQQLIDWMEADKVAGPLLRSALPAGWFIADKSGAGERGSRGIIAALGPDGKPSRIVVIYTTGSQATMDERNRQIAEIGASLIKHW
Chain of ATP-binding cassette sub-family B member 6 (Q9NP58 whole entry): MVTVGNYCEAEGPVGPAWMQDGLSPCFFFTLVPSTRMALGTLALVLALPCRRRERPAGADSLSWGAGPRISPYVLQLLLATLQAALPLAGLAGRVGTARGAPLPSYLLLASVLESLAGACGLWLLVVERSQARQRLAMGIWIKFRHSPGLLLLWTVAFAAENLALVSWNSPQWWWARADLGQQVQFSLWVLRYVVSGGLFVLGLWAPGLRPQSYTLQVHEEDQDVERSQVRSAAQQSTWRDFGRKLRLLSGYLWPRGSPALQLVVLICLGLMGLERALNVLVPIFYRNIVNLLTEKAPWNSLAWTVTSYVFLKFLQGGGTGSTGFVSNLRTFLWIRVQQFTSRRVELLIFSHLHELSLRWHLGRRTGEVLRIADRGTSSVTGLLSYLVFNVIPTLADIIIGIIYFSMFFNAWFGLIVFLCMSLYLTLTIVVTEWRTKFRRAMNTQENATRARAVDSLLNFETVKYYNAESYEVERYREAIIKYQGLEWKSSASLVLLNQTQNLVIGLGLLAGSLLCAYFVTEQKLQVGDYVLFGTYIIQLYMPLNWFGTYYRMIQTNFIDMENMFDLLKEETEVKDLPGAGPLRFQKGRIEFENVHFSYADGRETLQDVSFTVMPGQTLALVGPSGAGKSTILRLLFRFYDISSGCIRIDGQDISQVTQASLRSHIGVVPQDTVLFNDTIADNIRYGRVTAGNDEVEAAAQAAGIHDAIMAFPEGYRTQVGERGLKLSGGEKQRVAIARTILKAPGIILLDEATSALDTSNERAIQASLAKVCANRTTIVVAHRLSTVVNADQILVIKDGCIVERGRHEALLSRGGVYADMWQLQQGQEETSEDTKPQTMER

COC(=O)c1ccc(NC(=O)c2nc(S(=O)(=O)Cc3cccc(C)c3)ncc2Cl)cc1
EC50 (Streptococcus): 3.07 µM (active) | EC50 (Streptokinase A): > 150 µM (not active) | EC50 [1]: 44.2 µM (active) | AC50 [2]: 1.35 µM (active) | EC50 (Protein RecA): 0.228 µM (active) | IC50 (CHO): 2.53 µM (active) | AC50 (INS1): 7.28 µM (active) | AC50 [3]: 1.26 µM (active) | AC50 [4]: 0.389 µM (active) | EC50 [5]: 0.941 µM (active) | AC50 [6]: 5.82 µM (active) | IC50 (Beta Lactamase): 10.7 µM (inactive) | AC50 [7]: 33.5 µM (active)

O=C(N[C@H]1CC[C@@H](CCn2cc(-c3cccnc3)nn2)O[C@H]1CO)c1ccccc1F
AC50 [8]: 12.3 µM (active)

O=C(O)CC(CCc1ccccc1)NC(=O)c1cccs1 (stereo not drawn)
EC50 [9]: > 100 µM (inactive)

CC1=C(C(=O)OCc2ccc3c(c2)OCO3)C(c2ccc(O)c([N+](=O)[O-])c2)NC(=O)N1 (stereo not drawn)
IC50 (Interleukin-8 [10]): 63.7 µM (inactive) | IC50 (Interleukin-8 [11]): 39.8 µM (inactive)

O=C(N1CCCCC1Cc1ccccc1)n1cc(-c2ccc(-c3ccccc3)cc2)nn1 (stereo not drawn)
IC50 [12]: 0.1 µM (active) | IC50 [13]: 0.043 µM (active)

COC(=O)C(CC#Cc1ccc2c(c1)[C@]1(C(=O)N2)[C@H](c2ccc(OCCO)cc2)N2[C@H](c3ccccc3)[C@H](c3ccccc3)OC(=O)[C@H]2[C@@H]1C(=O)N1CCCCCCC1)C(=O)OC
AC50 [14]: 126 µM (active)

O=C1c2sccc2-c2cccc3cccc1c23
IC50 [15]: 1.02 µM (active) | IC50 [16]: > 66 µM (inactive) | IC50 [17]: 25.5 µM (inactive)
